The source of these data is patent US20060229261A1 (priority 2005, published 2006).

Data set [1] deals with patients with chronic constipation. The conditions noted are these: two trials versus placebo; cited from earlier work.
The conditions of data set [2]: primarily as inactive metabolites; cited from earlier work.
The subject of data set [3] is patients with functional constipation. As to the kind of experiment: Randomized, dose escalation, placebo controlled clinical study. The data set is classed as in vivo, human. The conditions noted are these: daily diaries, dose escalation phase (25, 50, 100 mg once daily). An excerpt: A randomized, dose escalation, placebo controlled study is designed to assess the efficacy of the administered formulation in 60 to 120 patients with functional constipation, defined using the Rome II criteria (modified), i.e., at least […] of two or more of the following symptoms: • i. Straining in >25% of defecations; • ii. Lumpy or hard stools in >25% of defecations; • iii. Sensation of incomplete evacuation in >25% of defecations; • iv. Sensation of anorectal obstruction/blockage in >25% of defecations; • v. Manual maneuvers to facilitate >25%, of defecations (e.g. digital evacuation, support of pelvic floor); and/or • vi. <3 evacuations per week. In addition, loose stools are not present, and there are insufficient criteria for a diagnosis of IBS. Moreover, these patients have no evidence of medical disorders that may cause constipation. Patients are symptomatic on entry in the randomization phase of the study, i.e., in the 8-14 day run-in period, on at least 8 days, which need not be consecutive, patients have lumpy or hard stools in >25% of defecations.
Patients are randomized to one of three groups:
Patients randomized to receive treatments a) or b) will receive 25 mg once daily for the first four weeks, 50 mg once daily for the following four weeks and 100 mg once daily for a further four weeks, providing the previous dose was well tolerated. […]

Data set [4] has as its system women patients with IBS-C. The following applies: 6 mg twice daily; cited from earlier work.

Take `OC[C@H]1O[C@@H](O[C@@H]2[C@@H](CO)OC(O)(CO)[C@H]2O)[C@H](O)[C@@H](O)[C@H]1O` (mixture of isomers) [lactulose]: the “stool frequency and consistency” value in data set [1] is “more effective than placebo”. For the molecule `C[C@H]1O[C@H](O[C@H]2[C@H](O)[C@@H](O)[C@@H](O[C@H]3[C@H](O)[C@@H](O)C(O)O[C@@H]3CO)O[C@@H]2CO)[C@H](O)[C@@H](O)[C@@H]1N[C@H]1C=C(CO)[C@@H](O)[C@H](O)[C@H]1O` (stereo partly shown) [acarbose], the oral dose absorbed result in data set [2] was “About 35%”. As to `CN(C)C(=N)N=C(N)N` [metformin], the “patient's global impression: answer 'yes' to "do you feel better now after treatment"” value in data set [3] was “at least 50 % of the time”. Consider `CCCCCNC(=N)N/N=C/c1c[nH]c2ccc(OC)cc12.O=C(O)/C=C\C(=O)O` [tegaserod, 3-(5-methoxy-1H-indol-3-ylmethylene)-N-pentylcarbazimidamide hydrogen maleate], for which the “global and individual symptoms” value in data set [4] is “effectively improves global and individual symptoms”.
